Test results reported in ChEMBL document CHEMBL3137667, “[Drug-induced liver injury; fourteenth updated edition of the bibliographic database of liver injuries and related drugs]” (Gastroenterol Clin Biol, 2004).

Legend:
[1] = human, serum
[2] = human
[3] = Highest frequency of moderate liver toxicity observed during clinical trials, expressed as a percentage. [column '% BIOL' in source]; details: human
[4] = human; remark: listed apart in the source
[5] = human; remark: listed apart in the source
[6] = human; remark: listed apart in the source
[7] = human, serum, 4383 h
[8] = human; remark: listed apart in the source
[9] = human; remark: listed apart in the source
[10] = Comments (NB not yet translated). [column 'COMMENTAIRES' in source]; details: human
[11] = human; remark: listed apart in the source
[12] = human; remark: listed apart in the source
[13] = human; remark: listed apart in the source
[14] = human, serum; remark: listed apart in the source
[15] = Highest frequency of acute liver toxicity observed during clinical trials, expressed as a percentage. [column '% AIGUE' in source]; details: human
[16] = Proposed mechanism(s) of liver damage. [column 'MEC' in source]; details: human
[17] = Times to onset, minimal and maximal, observed in the indexed observations. [column 'DELAI' in source]; details: human
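Wherever Hepatotoxicity (association with vascular disease) is given: count of indexed literature references reporting vascular liver injury in humans, e.g. peliosis hepatitis, hepatic veno-occlusive disease or Budd-Chiari syndrome.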
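Wherever Hepatotoxicity (benign tumour) is given: value is a count of indexed literature references citing a benign tumour confirmed by histopathology.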
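Wherever Hepatotoxicity (choleostasis) is given: human cholestatic liver injury, shown by histopathology or by peak ALT or AST elevation over alkaline phosphatase ratio below 2, value counts indexed literature reports.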
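Wherever Hepatotoxicity (chronic liver disease) is given: chronic liver injury confirmed by histopathology or persistently raised serum aminotransferase activity beyond 6 months, value given as the count of indexed literature references.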
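Wherever Hepatotoxicity (cirrhosis) is given: value is a count of indexed literature references reporting cirrhosis confirmed by histopathology.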
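Wherever Hepatotoxicity (cytolytic) is given: human cytolytic liver injury, shown by histopathology or by a ratio above 5 of peak ALT or AST elevation to alkaline phosphatase elevation, value counts indexed references.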
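Wherever Hepatotoxicity (granulomatous hepatitis) is given: value is a count of indexed literature references reporting granulomatous liver disease confirmed by histopathology.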
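Wherever Hepatotoxicity (malignant tumour) is given: malignant tumour confirmed by histopathology, value gives the count of indexed literature references reporting it.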
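Wherever Hepatotoxicity (severe hepatitis) is given: human clinical data: severe hepatitis, meaning potentially life-threatening liver failure or clinically observed cases, the value counts how many indexed literature references report it.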
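Wherever Hepatotoxicity (steatosis) is given: steatosis confirmed by histopathology, value is the count of indexed references.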

Row | Compound | Hepatotoxicity (acute) [1] | Hepatotoxicity (cytolytic) [2] | Hepatotoxicity (moderate) [3] [%] | Hepatotoxicity (steatosis) [4] | Hepatotoxicity (association with vascular disease) [5] | Hepatotoxicity (choleostasis) [6] | Hepatotoxicity (chronic liver disease) [7] | Hepatotoxicity (benign tumour) [8] | Hepatotoxicity (cirrhosis) [9] | Hepatotoxicity (comment) [10] | Hepatotoxicity (severe hepatitis) [11] | Hepatotoxicity (granulomatous hepatitis) [12] | Hepatotoxicity (malignant tumour) [13] | Hepatotoxicity (moderate) [14] | Hepatotoxicity (acute) [15] [%] | Hepatotoxicity (mechanism) [16] | Hepatotoxicity (time to onset) [17]
1 | CN(C)C(=O)Oc1cc(OC(=O)N(C)C)cc(C(O)CNC(C)(C)C)c1 (configuration not stated) [BAMBUTEROL] | 0 | 0 | 0 | 0 | 0 | 0 | 0 | 0 | 0 | VOIR_TERBUTALINE | 0 | 0 | 0 | 1 | 0 | – | –
2 | CO/N=C(\C(=O)N[C@@H]1C(=O)N2C(C(=O)O)=C(CSc3nnnn3C)CS[C@H]12)c1csc(N)n1 [CEFMENOXIME] | 1 | 0 | 12.2 | 0 | 0 | 1 | 0 | 0 | 0 | CHOLESTASE_PROLONGEE | 0 | 1 | 0 | 11 | 0 | – | –
3 | C[C@]12CCC(=O)C=C1CC[C@@H]1[C@@H]2C(=O)C[C@@]2(C)[C@H]1CC[C@]2(O)C(=O)CO [CORTISONE] | 0 | 0 | 0 | 5 | 2 | 0 | 0 | 0 | 0 | AGGRAVATION_HEPATITE_VIRALE | 0 | 0 | 0 | 0 | 0 | – | –
4 | CC[C@H](c1ccc(O)cc1)[C@@H](CC)c1ccc(O)cc1 [HEXESTROL] | 0 | 0 | 0 | 1 | 0 | 0 | 1 | 0 | 0 | NASH | 0 | 0 | 0 | 0 | 0 | – | –
5 | CC(C)[C@@H]1NC(=O)[C@H](CCCCN)NC(=O)[C@@H](Cc2c[nH]c3ccccc23)NC(=O)[C@H](Cc2ccc(O)cc2)NC(=O)[C@@H](NC(=O)[C@H](N)Cc2ccc3ccccc3c2)CSSC[C@@H](C(=O)N[C@H](C(N)=O)[C@@H](C)O)NC1=O [LANREOTIDE] | 0 | 0 | 0 | 0 | 0 | 0 | 0 | 0 | 0 | BOUE_BILIAIRE LITHIASE_VESICULAIRE ENCEPHALOPATHIE | 0 | 0 | 0 | 0 | 0 | – | –
6 | O=C1Nc2ccc(Cl)cc2C(c2ccccc2Cl)=NC1O (configuration not stated) [LORAZEPAM] | 1 | 0 | 0 | 0 | 0 | 0 | 0 | 0 | 0 | I/PYRIMETHAMINE | 0 | 0 | 0 | 1 | 0 | – | –
7 | CC1=C(C/C=C(\C)CCC[C@H](C)CCC[C@H](C)CCCC(C)C)C(=O)c2ccccc2C1=O [PHYTONADIONE] | 5 | 0 | 0 | 0 | 0 | 0 | 0 | 0 | 0 | ICTERE_NEONATAL | 0 | 0 | 0 | 0 | 0 | – | –
8 | CCOC(=O)CN[C@@H](C(=O)N1CC[C@H]1C(=O)NCc1ccc(/C(N)=N\O)cc1)C1CCCCC1 [XIMELAGATRAN] | 3 | 0 | 9.8 | 0 | 0 | 0 | 0 | 0 | 0 | – | 0 | 0 | 0 | 9 | 6.8 | Dose-dependant | 1 month - 6 months
9 | CC(c1cc2ccccc2s1)N(O)C(N)=O (configuration not stated) [ZILEUTON] | 2 | 1 | 16.7 | 0 | 0 | 0 | 0 | 0 | 0 | – | 0 | 0 | 0 | 8 | 0 | Dose-dependant | 24 days
10 | Cc1cc(CC(=O)O)n(C)c1C(=O)c1ccc(Cl)cc1 [ZOMEPIRAC] | 0 | 0 | 1.7 | 0 | 0 | 0 | 0 | 0 | 0 | – | 0 | 0 | 0 | 2 | 0 | Allergic | 2 weeks
11 | BCG VACCINE | 6 | 2 | 10 | 0 | 0 | 2 | 0 | 0 | 0 | – | 0 | 32 | 0 | 7 | 0.9 | Allergic | 1 hour - 2 years
12 | CARBOPLATIN | 1 | 0 | 27 | 0 | 5 | 1 | 0 | 0 | 0 | – | 1 | 0 | 0 | 5 | 6.1 | Dose-dependant | 1 week
13 | NADROPARIN CALCIUM | 0 | 0 | 66.7 | 0 | 0 | 0 | 0 | 0 | 0 | – | 0 | 0 | 0 | 8 | 0 | Dose-dependant | 5 days - 1 week
14 | STIBOGLUCONATE | 2 | 1 | 61.5 | 0 | 0 | 0 | 0 | 0 | 0 | – | 0 | 0 | 0 | 12 | 2 | Dose-dependant | 1 week - 3 weeks
